Measured values reported in ChEMBL document CHEMBL1143147, “A novel sesquiterpenoid dimer parviflorene F induces apoptosis by up-regulating the expression of TRAIL-R2 and a caspase-dependent mechanism” (Bioorg Med Chem, 2008).
Converted amounts (≈) assume the structure as drawn. The source made the active and inactive calls. The rule behind the calls is not given here.

Tests used:
HeLa [1] = assay: Cytotoxicity against human HeLa cells after 24 hrs by FMCA; type: functional, cell-based
HeLa [2] = assay: Increase in NM_003607 mRNA expression in human HeLa cells by RTPCR; type: functional, cell-based
HeLa [3] = assay: Increase in AF016266 mRNA expression in human HeLa cells by RTPCR; type: functional
HeLa [4] = assay: Increase in TRAIL-R2 protein level in human HeLa cells at 8 ug/ml after 24 hrs by Western blot; type: functional, cell-based
HeLa [5] = assay: Increase in TRAIL-R2 protein level in human HeLa cells at 4 ug/ml after 24 hrs by Western blot; type: functional, cell-based
HeLa [6] = assay: Induction of apoptosis in human HeLa cells assessed as accumulation at subG1 phase after 6 hrs by flow cytometry; type: functional
HeLa [7] = assay: Induction of apoptosis in human HeLa cells assessed as accumulation at subG1 phase after 12 hrs by flow cytometry; type: functional
HeLa [8] = assay: Induction of apoptosis in human HeLa cells assessed as accumulation at subG1 phase after 24 hrs by flow cytometry; type: functional
HeLa [9] = assay: Induction of apoptosis in human HeLa cells assessed as accumulation at G1 phase after 6 hrs by flow cytometry; type: functional
HeLa [10] = assay: Induction of apoptosis in human HeLa cells assessed as accumulation at G1 phase after 12 hrs by flow cytometry; type: functional
HeLa [11] = assay: Induction of apoptosis in human HeLa cells assessed as accumulation at G1 phase after 24 hrs by flow cytometry; type: functional
HeLa [12] = assay: Induction of apoptosis in human HeLa cells assessed as accumulation at S phase after 6 hrs by flow cytometry; type: functional
HeLa [13] = assay: Induction of apoptosis in human HeLa cells assessed as accumulation at S phase after 12 hrs by flow cytometry; type: functional
HeLa [14] = assay: Induction of apoptosis in human HeLa cells assessed as accumulation at S phase after 24 hrs by flow cytometry; type: functional
HeLa [15] = assay: Induction of apoptosis in human HeLa cells assessed as accumulation at G2/M phase after 6 hrs by flow cytometry; type: functional
HeLa [16] = assay: Induction of apoptosis in human HeLa cells assessed as accumulation at G2/M phase after 12 hrs by flow cytometry; type: functional
HeLa [17] = assay: Induction of apoptosis in human HeLa cells assessed as accumulation at G2/M phase after 24 hrs by flow cytometry; type: functional
HeLa [18] = assay: Induction of apoptosis in human HeLa cells assessed as early apoptotic cells at 4 ug/ml after 12 hrs by annexin V-FITC/PI staining; type: functional
HeLa [19] = assay: Induction of apoptosis in human HeLa cells assessed as early apoptotic cells at 4 ug/ml after 24 hrs by annexin V-FITC/PI staining; type: functional
HeLa [20] = assay: Reversal of drug-induced apoptosis in human HeLa cells expressing TRAIL-R2/Fc chimera protein after 12 hrs; type: functional, cell-based
HeLa [21] = assay: Induction of apoptosis in human HeLa cells assessed as caspase 3 activity at 4 ug/ml; type: functional, cell-based; conditions: TDE = time-dependent effect
HeLa [22] = assay: Induction of apoptosis in human HeLa cells assessed as cleavage of caspase 8 at 4 ug/ml after 6 hrs by Western blot; type: functional, cell-based
HeLa [23] = assay: Induction of apoptosis in human HeLa cells assessed as cleavage of caspase 8 at 4 ug/ml after 12 hrs by Western blot; type: functional, cell-based
HeLa [24] = assay: Reversal of drug-induced apoptosis in human HeLa cells in presence of caspase 8 inhibitor z-IETD after 12 hrs by Annexin-PI dual staining; type: functional
HeLa [25] = assay: Reversal of drug-induced apoptosis in human HeLa cells ain presence of caspase 9 inhibitor z-LEHD after 12 hrs by Annexin-PI dual staining; type: functional
DLD-1 [26] = assay: Cytotoxicity against human DLD1/TRAIL-R cells after 24 hrs; type: functional, cell-based; conditions: DLD-1, 24 h
DLD-1 [27] = assay: Upregulation of TRAIL-R2 protein in human DLD1/TRAIL-R cells at 4 ug/ml by Western blot; type: functional, cell-based
DLD-1 [28] = assay: Upregulation of TRAIL-R2 protein in human DLD1/TRAIL-R cells at 8 ug/ml by Western blot; type: functional, cell-based
HeLa [29] = assay: Cell viability in human HeLa cells at 4 ug/ml after 24 hrs; type: functional
DLD-1 [30] = assay: Cell viability in human DLD1/TRAIL-R cells at 8 ug/ml after 24 hrs; type: functional
HeLa [31] = assay: Induction of apoptosis in human HeLa cells assessed as late apoptotic cells at 4 ug/ml after 24 hrs by annexin V-FITC and PI staining; type: functional
HeLa [32] = assay: Cytotoxicity against human HeLa cells expressed as ratio of RHAMM gene expression in cells treated with drug at 5 ug/ml over control after 24 hrs; type: functional
DLD-1 [33] = assay: Cell viability in human DLD1/TRAIL-R cells at 8 ug/ml after 24 hrs in presence of TRAIL; type: functional
HeLa [34] = assay: Cell viability in human HeLa cells at 4 ug/ml after 24 hrs in presence of TRAIL; type: functional
HeLa [35] = assay: Cytotoxicity against human HeLa cells expressed as ratio of MRCKalpha gene expression in cells treated with drug at 5 ug/ml over control after 24 hrs; type: functional
HeLa [36] = assay: Cytotoxicity against human HeLa cells expressed as ratio of TRAIL-R2 gene expression in cells treated with drug at 5 ug/ml over control after 24 hrs; type: functional
HeLa [37] = assay: Cytotoxicity against human HeLa cells expressed as ratio of Cyr61 gene expression in cells treated with drug at 5 ug/ml over control after 24 hrs; type: functional

In the case of `Cc1cc(O)c2c(c1)[C@H](C(C)C)Cc1cc3c(cc1-2)[C@@H](O)[C@@H](C(C)C)c1cc(C)cc(O)c1-3` [PARVIFLORENE F], the IC50 (HeLa [1]) is reported as 4.3 µg/mL (≈ 9.72 µM), the Activity (HeLa [2]) is reported as “Dose-dependent effect” and the Fold change (HeLa [3]) is reported as 4.9. For the same compound, the Activity (HeLa [4]) was “Active”, the Activity (HeLa [5]) was “Active” and the Activity (HeLa [6]) was 10.9%. The Activity (HeLa [7]) was 31.5%, the Activity (HeLa [8]) was 26.1% and the Activity (HeLa [9]) was 56.1%. It also gave an Activity (HeLa [10]) of 41.6%, an Activity (HeLa [11]) of 52.1% and an Activity (HeLa [12]) of 17.3%. For the same compound, the Activity (HeLa [13]) was 10.3%, the Activity (HeLa [14]) was 5.5% and the Activity (HeLa [15]) was 15.6%. For the same compound, the Activity (HeLa [16]) was 16.6%, the Activity (HeLa [17]) was 15.3% and the Activity (HeLa [18]) was 52.7%. The Activity (HeLa [19]) was 41.2%, the Activity (HeLa [20]) was “Active” and the Activity (HeLa [21]) was “tde”. For the same compound, the Activity (HeLa [22]) was “Active”, the Activity (HeLa [23]) was “inactive” and the Activity (HeLa [24]) was 2.2%. For the same compound, the Activity (HeLa [25]) was 4%, the IC50 (DLD-1 [26]) was 9.2 µg/mL (≈ 20.8 µM) and the Activity (DLD-1 [27]) was “Active”. The Activity (DLD-1 [28]) was “Active”, the Activity (HeLa [29]) was 44% and the Activity (DLD-1 [30]) was 54%. The Activity (HeLa [31]) was 22.9%, the Ratio (HeLa [32]) was 0.68 and the Activity (DLD-1 [33]) was 20%. The Activity (HeLa [34]) was 16%, the Ratio (HeLa [35]) was 1.71 and the Ratio (HeLa [36]) was 1.44. For the same compound, the Ratio (HeLa [37]) was 0.61.
